Reference: patent US12043621B2, “Small molecule inhibitors of Interleukin-4” (Trustees of Boston University, priority 2020, dated 2024)
Like-named read-outs stand apart in the source and are kept apart here.

Experiments:
IL-4 = molecular target: T1, IL-4 (Homo sapiens, UniProt P05112); experiment: HEK-Blue IL-4/IL-13 cell-based reporter (SEAP) IL-4 inhibition assay; settings: for Activity at 1 uM / Activity at 10 uM: percent activity in HEK-Blue IL-4/IL-13, in %; for reduction of IL-4 activity: at 50 μM, normalized to IL-4 with vehicle
T1 construct: purchased Acros Biosystems IL4-H4218; host or cells: HEK-293
T1 sequence (P05112 25-153): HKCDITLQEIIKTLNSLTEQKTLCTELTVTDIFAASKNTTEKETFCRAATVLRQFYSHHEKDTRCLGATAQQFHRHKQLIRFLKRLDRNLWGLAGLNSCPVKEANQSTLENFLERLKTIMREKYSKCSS
Description: HEK-Blue IL-4/IL-13 cells were purchased from Invivogen and maintained in DMEM complete with 10% fetal bovine serum, 10 μg/ml of blasticidin and 100 μg/ml of Zeocin, 100 μg/mL Normocin, and 100 U/mL-100 μg/mL Pen-Strep. Cells used for assays were between passages 12 and 18. […] HEK-Blue IL-4/IL-13 cells were trypsinized, spun down, and resuspended in DMEM with 10% heat-inactivated FBS, and 100 U/mL-100 μg/mL Pen-Strep at a concentration of 3.125E5/mL. 160 μL of the cell suspension was added to each well of a 96 well plate, avoiding the edges of the plate and equilibrated in an incubator for 1 hour. After 2 hours, 40 μL of the small molecule/IL-4 solution was added to each well. Each measurement performed in quadruplicate. Cells were incubated for 20 hours at 37° C./5% CO2. Quanti-Blue was prepared according to manufacture and 160 μL added to each well of a 96 well plate, avoiding edges. 40 μL of cell supernatant was added to each well and then incubated for 3 hours at 37° C. The optical density was then read at 650 nm with a Molecular Devices SpectraMax M5 Microplate Reader. Data was plotted and analyzed in GraphPad Prism 8.
HEK-Blue IL-4/IL-13 cells were purchased from Invivogen and maintained in DMEM complete with 10% fetal bovine serum, 10 μg/ml of blasticidin and 100 μg/ml of Zeocin, 100 μg/mL Normocin, and 100 U/mL-100 μg/mL Pen-Strep. Cells used for assays were between passages 12 and 18. Prior to screening small molecules, the SEAP production induced by IL-4 alone was tested in the cells (FIG. 13) and determined to be 0.3 ng/mL. The EC25 for the IL-4 induced SEAP production (0.1 ng/mL final well concentration) was chosen for running small molecule inhibition assays.
(§1) For screening small molecules, 25 µL of each molecule (FIG. 9) in DMEM with 4% DMSO was added to 25 μL of 1 ng/ml IL-4 in DMEM and incubated for 2 hours at 37° C. HEK-Blue IL-4/IL-13 cells were trypsinized, spun down, and resuspended in DMEM with 10% heat-inactivated FBS, and 100 U/mL-100 μg/mL Pen-Strep at a concentration of 3.125E5/mL. 160 μL of the cell suspension was added to each well of a 96 well plate, avoiding the edges of the plate and equilibrated in an incubator for 1 hour. After 2 hours, 40 μL of the small molecule/IL-4 solution was added to each well. Each measurement was performed in […]. Cells were incubated for 20 hours at 37° C./5% CO2. Quanti-Blue was prepared according to manufacture and 160 μL added to each well of a 96 well plate, avoiding edges. 40 μL of cell supernatant was added to each well and then incubated for 3 hours at 37° C. The optical density was then read at 650 nm with a Molecular Devices SpectraMax M5 Microplate Reader. Data was plotted and analyzed in GraphPad Prism 8.
HEK-Blue IL-4/IL-13 cells used to screen analogs of compound 52 from ACS Chemical Biology paper (also referred to herein as D9). Assay was run as described in Examples 2 and 3. All compounds were screened at 10 μM, 1 μM, and 250 nM in quadruplicate. The results are depicted in FIGS. 17-21.

>25 other proteins = experiment: SMM binding signatures versus >25 unrelated proteins; settings: compared to SMM binding signatures for >25 other proteins
Excerpt: [formula] Where SNRi is the SNR value for a given feature, Mdn(SNR) is the median of the SNR values for all features in the subarray, and the MAD(SNR) is the […] absolute deviation of the SNR values for all features in the subarray. Assay positives with an average robust Z score greater than 1.645 (alpha=0.05) on duplicate slides were compared to both a counter screen for the detection antibody and a database representing >25 unique targets screened by SMM against the same chemical library to filter nonspecific binders. DSF

[1] = tested on: HEK-Blue IL-4/IL-13 cells; experiment: HEK-Blue IL-4/IL-13 control: compounds alone without IL-4 (SEAP); type: cell-based; settings: cells with 100 μM compound, no IL-4
Description: as §1, with “For screening small molecules, 25 µL of each molecule (FIG. 9) in DMEM with 4% DMSO was added to 25 μL of 1 ng/ml IL-4 in DMEM and incubated for 2 hours at 37° C.” left out

[2] = Example 2, quadruplicate, read-out: EC50 of IL-4 inhibition in HEK-Blue IL-4/IL-13 cells
[3] = Example 3, triplicate, read-out: EC50 of IL-4 inhibition in HEK-Blue IL-4/IL-13 cells

Compound	Activity at 1 uM (IL-4)	Activity at 10 uM (IL-4)	other results
N#Cc1c(-c2ccc(O)c(O)c2)cc(-c2ccc(F)cc2)nc1N [Compound 1, 2-amino-4-(3,4-dihydroxyphenyl)-6-(4-fluorophenyl)-nicotinonitrile]	71.73	2.405	EC50 (IL-4; [2]): 45.6 µM; EC50 (IL-4; [3]): 40 µM; EC50 (IL-4; Table 3, read-out: EC50): 1.56 µM; reduction of IL-4 activity (IL-4): 88.6%; SMM binding selectivity (>25 other proteins): only bound to IL-4; Abs650 [1]: 0.0955 ± 0.0072
N#Cc1c(-c2ccc(O)c(O)c2)cc(-c2ccc(F)cc2)nc1N [Compound 2]	64.46	4.2	–
N#Cc1c(-c2cc(O)c(O)c(O)c2)cc(-c2ccc(F)cc2)nc1N [Compound 5]	84.76	93.86	–
Cc1ccc(-c2cc(-c3ccc(F)cc3)nc(N)c2C#N)o1 [Compound 9]	77.98	66.06	–
Cc1ccc(-c2cc(-c3ccc(F)cc3)nc(N)c2C#N)s1 [Compound 11]	69.98	62.48	–
N#Cc1c(-c2ccccc2O)cc(-c2ccc(F)cc2)nc1N [Compound 15]	51.3773	1.218	–
N#Cc1c(-c2ccc(O)cc2)cc(-c2ccc(F)cc2)nc1N [Compound 17]	99.0184	52.77	–
COc1ccc(-c2cc(-c3cccnc3)nc(N)c2C#N)cc1O [Compound 25]	–	–	EC50 (IL-4; [2]): 21.7 µM; EC50 (IL-4; [3]): 7.6 µM; reduction of IL-4 activity (IL-4): 84.3%; SMM binding selectivity (>25 other proteins): only bound to IL-4; Abs650 [1]: 0.0648 ± 0.0012
COc1ccc(-c2cc(-c3ccc(OC)c(O)c3)c(C#N)c(N)n2)cc1 [Compound 30]	64.45	28.76	EC50 (IL-4; Table 3, read-out: EC50): 3.88 µM
COc1ccc(-c2cc(-c3ccc(Cl)c(Cl)c3)c(C#N)c(=O)[nH]2)cc1 [Compound 32]	51.3	55.85	–
COc1ccc(-c2cc(-c3ccccc3)c(C#N)c(=O)[nH]2)cc1 [Compound 34]	73.09	72.43	–
COc1ccc(-c2cc(C3CCCOC3)c(C#N)c(=O)[nH]2)cc1 (stereo not shown) [Compound 36]	71.59	68.36	–
COc1ccc(-c2cc(-c3ccc(C)o3)c(C#N)c(=O)[nH]2)cc1 [Compound 37]	89.04	99.52	–
COc1ccc(-c2cc(-c3ccc4ccccc4c3)c(C#N)c(=O)[nH]2)cc1 [Compound 41]	62.288	48.23	–
COc1ccc(-c2cc(-c3ccccc3O)c(C#N)c(=O)[nH]2)cc1 [Compound 42]	33.675	−0.3167	–
COc1ccc(-c2cc(-c3cccc(O)c3)c(C#N)c(=O)[nH]2)cc1 [Compound 43]	112.2	35.73	–
COc1ccc(-c2cc(-c3ccc(O)cc3)c(C#N)c(=O)[nH]2)cc1 [Compound 44]	33.62	39.28	–
COc1ccc(-c2cc(-c3ccc(O)c(OC)c3)c(C#N)c(=O)[nH]2)cc1 [Compound 45]	80.34	−2.843	–
COc1ccc(-c2cc(-c3ccc(OC)c(O)c3)c(C#N)c(=O)[nH]2)cc1 [Compound 46]	17.94	13.16	–
COc1ccc(-c2cc(-c3ccc(-c4ccccc4)cc3)[nH]c(=O)c2C#N)cc1O [Compound 53]	17.656	30.26	–
N#Cc1c(-c2ccc(O)c(O)c2)cc(-c2ccc(N3CCCCC3)cc2)[nH]c1=O [Compound 56]	81.52	11.84	–
Cn1ccc(-c2cc(-c3cccc(O)c3)c(C#N)c(=O)[nH]2)c1 [Compound 57]	94.4121	75.91	–
Cc1cc(-c2cc(-c3cccc(O)c3)c(C#N)c(=O)[nH]2)c(C)s1 [Compound 58]	85.76	39.79	–
N#Cc1c(-c2cccc(O)c2)cc(-c2cc(F)c(F)c(F)c2)[nH]c1=O [Compound 59]	88.75	32.37	–
COc1nc(-c2ccccc2)cc(-c2ccccc2)c1C#N [Compound 61]	96.92	39.64	–
COc1ccc(-c2cc(-c3ccccc3)nc(Br)c2C#N)cc1 [Compound 62]	96.31	38.63	–
N#Cc1c(-c2ccccc2)cc(-c2ccccc2)nc1N1CCCCC1 [Compound 63]	95.46	40.44	–
COc1ccc(-c2cc(-c3ccccc3)c(C#N)c(S)n2)cc1 [Compound 64]	17.08	16.53	–
COc1ccc(-c2cc(-c3ccccc3)c(C#N)c(SC)n2)cc1 [Compound 65]	95.33	20.54	–
COc1ccc(-c2cc(-c3ccc(O)cc3)c(C#N)c(SC)n2)c(OC)c1 [Compound 66]	87.86	21.21	–
